Active and inactive are the calls of the source. The rule behind the calls is not given here.
What was measured:
[1] = Cytotoxicity against mouse Neuro2a cells assessed as reduction in cell viability after 24 hrs by MTT assay; type: cell-based; conditions: n2a
[2] = Cytotoxicity against rat CGN cells assessed as reduction in cell viability after 24 hrs by MTT assay; type: cell-based
[3] = target: Acetylcholinesterase (Homo sapiens, UniProt P22303)
Description: Inhibition of human recombinant AChE after 5 mins by Ellman method

[4] = target: Cholinesterase (Homo sapiens, UniProt P06276)
Chain of Cholinesterase (P06276 whole entry): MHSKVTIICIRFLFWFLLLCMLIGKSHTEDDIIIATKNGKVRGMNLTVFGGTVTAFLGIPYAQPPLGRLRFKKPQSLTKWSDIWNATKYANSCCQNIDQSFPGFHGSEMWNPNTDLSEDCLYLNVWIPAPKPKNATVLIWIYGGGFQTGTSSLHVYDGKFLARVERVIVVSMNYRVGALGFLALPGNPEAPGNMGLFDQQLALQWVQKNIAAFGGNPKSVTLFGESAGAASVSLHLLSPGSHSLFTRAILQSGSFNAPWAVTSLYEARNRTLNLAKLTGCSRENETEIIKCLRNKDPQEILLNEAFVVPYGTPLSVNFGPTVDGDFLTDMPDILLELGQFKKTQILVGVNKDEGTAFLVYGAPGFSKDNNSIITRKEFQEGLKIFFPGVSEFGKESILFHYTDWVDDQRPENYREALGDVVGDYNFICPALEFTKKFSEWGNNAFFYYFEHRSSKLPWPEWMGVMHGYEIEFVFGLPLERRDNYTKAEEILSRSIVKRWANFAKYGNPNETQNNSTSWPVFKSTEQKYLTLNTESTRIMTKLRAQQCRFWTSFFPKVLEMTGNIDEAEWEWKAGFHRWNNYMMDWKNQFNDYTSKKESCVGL
Description: Inhibition of human plasmatic BChE after 5 mins by Ellman method

[5] = Cytotoxicity against mouse Neuro2a cells assessed as cell viability at 12.5 uM after 24 hrs by MTT assay relative to control; type: cell-based, N2a; conditions: read-out: Activity
[6] = Cytotoxicity against rat CGN cells assessed as cell viability at 12.5 uM after 24 hrs by MTT assay relative to control; type: cell-based; conditions: read-out: Activity
[7] = system: N2a; experiment: Neuroprotective effect in amyloid beta-stimulated mouse Neuro2a cells assessed as increase in cell viability at 12.5 uM after 24 hrs by MTT assay; type: functional, cell-based
[8] = system: T67; experiment: Antioxidant activity in tert-butyl hydroperoxide-stimulated human T67 cells assessed as reduction in intracellular ROS production at 10 uM after 24 hrs by spectrophotometry; type: functional, cell-based
[9] = system: T67; experiment: Antioxidant activity in tert-butyl hydroperoxide-stimulated human T67 cells assessed as reduction in intracellular ROS production at 10 uM after 24 hrs by spectrophotometry in presence of sulforaphane; type: functional, cell-based
[10] = system: Rattus norvegicus; experiment: Ex vivo inhibition of AChE in ip dosed Wistar rat telencephalon measured 1 hr post dose by colorimetric method; type: functional, organism-based
[11] = system: Rattus norvegicus; experiment: Ex vivo inhibition of AChE in Wistar rat cerebellum at 10 or 50 umol/kg, ip measured 1 hr post dose by colorimetric method; type: functional, organism-based
[12] = system: HepG2; experiment: Hepatotoxicity in human HepG2 cells assessed as reduction in cell viability at 12.5 to 50 uM after 24 hrs by MTT assay; type: toxicity, cell-based; conditions: hepg2, 24 h

Chain of Acetylcholinesterase (P22303 whole entry): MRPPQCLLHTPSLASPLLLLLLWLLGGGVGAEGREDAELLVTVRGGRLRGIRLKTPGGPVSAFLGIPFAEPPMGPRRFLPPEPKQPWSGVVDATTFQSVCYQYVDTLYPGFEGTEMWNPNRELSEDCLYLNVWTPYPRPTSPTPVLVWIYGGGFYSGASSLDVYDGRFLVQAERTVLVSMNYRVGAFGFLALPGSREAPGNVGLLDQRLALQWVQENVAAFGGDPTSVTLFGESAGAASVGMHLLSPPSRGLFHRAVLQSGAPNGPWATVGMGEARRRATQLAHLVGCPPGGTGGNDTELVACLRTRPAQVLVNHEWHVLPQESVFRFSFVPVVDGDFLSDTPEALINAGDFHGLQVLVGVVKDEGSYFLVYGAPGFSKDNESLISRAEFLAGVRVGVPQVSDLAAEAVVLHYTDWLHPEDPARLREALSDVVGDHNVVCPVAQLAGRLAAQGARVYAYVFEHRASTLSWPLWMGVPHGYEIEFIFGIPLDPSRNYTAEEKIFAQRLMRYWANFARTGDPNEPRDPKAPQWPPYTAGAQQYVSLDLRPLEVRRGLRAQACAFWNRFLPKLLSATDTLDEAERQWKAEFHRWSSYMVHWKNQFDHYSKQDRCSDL

Row | SMILES | Activity [1] | Activity [2] | IC50 [3] [nM] | IC50 [4] [nM] | viability at 24 h, 12.5 µM [5] [%] | viability at 24 h, 12.5 µM [6] [%] | Activity [7] | Activity [8] | Activity [9] | inhibition [10] | inhibition [11] | Activity [12]
1 | COc1ccc2nc3c(c(NCCCNC4=CC(=O)c5ccccc5C4=O)c2c1)CCCC3 | Non-toxic | Toxic | 6150 | 635 |  |  |  |  |  |  |  | 
2 | O=C1C=C(NCCCNc2c3c(nc4ccccc24)CCCC3)C(=O)c2ccccc21 | Non-toxic | Toxic | 53.7 | 19.1 |  |  |  |  |  |  |  | 
3 | COc1ccc2nc3c(c(NCCCNC4=CC(=O)c5c(O)cccc5C4=O)c2c1)CCCC3 | Toxic | Toxic | 348 | 329 |  |  |  |  |  |  |  | 
4 | COc1ccc2nc3c(c(NCCNC4=C(Cl)C(=O)c5ccccc5C4=O)c2c1)CCCC3 | Toxic | Toxic | 1370 | 970 |  |  |  |  |  |  |  | 
5 | O=C1C=C(NCCNc2c3c(nc4cc(Cl)ccc24)CCCC3)C(=O)c2ccccc21 | Non-toxic | Toxic | 1.93 | 256 | 105 | 75 | Active | inactive | Active | Dose-dependent effect | inactive | Non-toxic
6 | O=C1C(Cl)=C(NCCNc2c3c(nc4cc(Cl)ccc24)CCCC3)C(=O)c2ccccc21 | Toxic | Toxic | 3.21 | 287 |  |  |  |  |  |  |  | 
7 | COc1ccc2nc3c(c(NCCCNC4=C(Cl)C(=O)c5ccccc5C4=O)c2c1)CCCC3 | Toxic | Toxic | 809 | 742 |  |  |  |  |  |  |  | 
8 | O=C1C(Cl)=C(NCCCNc2c3c(nc4ccccc24)CCCC3)C(=O)c2ccccc21 | Toxic | Toxic | 38 | 47.8 |  |  |  |  |  |  |  | 
9 | O=C1C(NCCNc2c3c(nc4cc(Cl)ccc24)CCCC3)=CC(=O)c2c(O)cccc21 | Toxic | Toxic | 0.72 | 542 | 85.6 | 73.5 | Active | inactive | Active | Dose-dependent effect | inactive | 
10 | O=C1C(NCCCNc2c3c(nc4ccccc24)CCCC3)=CC(=O)c2c(O)cccc21 | Toxic | Toxic | 103 | 14.5 |  |  |  |  |  |  |  | 
11 | COc1ccc2nc3c(c(NCCNC4=CC(=O)c5ccccc5C4=O)c2c1)CCCC3 | Toxic | Toxic | 2530 | 501 |  |  |  |  |  |  |  | 
12 | COc1ccc2nc3c(c(NCCNC4=CC(=O)c5c(O)cccc5C4=O)c2c1)CCCC3 | Toxic | Toxic | 651 | 1280 |  |  |  |  |  |  |  | 
13 | O=C1C(NCCNc2c3c(nc4ccccc24)CCCC3)=CC(=O)c2c(O)cccc21 | Toxic | Toxic | 24.7 | 41.4 |  |  |  |  |  |  |  | 
14 | O=C1C=C(NCCCNc2c3c(nc4cc(Cl)ccc24)CCCC3)C(=O)c2ccccc21 | Non-toxic | Toxic | 5.4 | 197 |  |  |  |  |  |  |  | 
15 | O=C1C(Cl)=C(NCCNc2c3c(nc4ccccc24)CCCC3)C(=O)c2ccccc21 | Toxic | Toxic | 96.1 | 96.1 |  |  |  |  |  |  |  | 
16 | O=C1C(NCCCNc2c3c(nc4cc(Cl)ccc24)CCCC3)=CC(=O)c2c(O)cccc21 | Toxic | Toxic | 9.24 | 258 |  |  |  |  |  |  |  | 
17 | O=C1C(Cl)=C(NCCCNc2c3c(nc4cc(Cl)ccc24)CCCC3)C(=O)c2ccccc21 | Toxic | Toxic | 8.94 | 234 |  |  |  |  |  |  |  | 
18 | O=C1C=C(NCCNc2c3c(nc4ccccc24)CCCC3)C(=O)c2ccccc21 | Non-toxic | Toxic | 14.3 | 5.45 |  |  |  |  |  |  |  | 

— ChEMBL document CHEMBL3351527, “Multitarget drug design strategy: quinone-tacrine hybrids designed to block amyloid-β aggregation and to exert anticholinesterase and antioxidant effects” (J Med Chem, 2014)
